From US20240262822A1, “WDR5 INHIBITORS AND MODULATORS” (Vanderbilt University, priority 2021, published 2024)
Read-outs that look alike come from different tables or passages of the source.

How the values were obtained:
WDR5 = target: T1, WDR5 (Homo sapiens, UniProt P61964); assay: Time Resolved-Fluorescence Energy Transfer (TR-FRET) competition assay, displacement of 10mer-Thr-FAM probe from His-tagged WDR5; assay type: binding; conditions: WDR5-His tag 2 nM, 10mer-Thr-FAM 150 nM, 60 minutes at room temperature
T1 construct: WDR5-His Tag (A23, residues 24-334) is expressed and purified in our lab; made in house
Text: Excess 10mer-Thr-FAM probe was utilized with His-tagged WDR5 in conjunction with a commercial anti-His antibody containing a Terbium label. The LanthaScreen™ Elite Tb-anti-HIS Antibody from ThermoFisher Scientific was used for this purpose. This Tb-anti-HIS has an excitation/emission of 340 nm and 490 nm, respectively. The 10mer-Thr-FAM probe when bound to WDR5 will undergo a FRET interaction with the Tb-anti-HIS and emit at 520 nm. […] WDR5-His Tag (A23, residues 24-334) is expressed and purified in our lab in sufficient quantities for screening. 10mer-Thr-FAM peptide is used at 150 nM. WDR5-His tag protein is used at 2 nM. A source plate is prepared using an Echo Liquid Handler, which distributes the compounds to the assay plate (white, flat-bottom; OptiPlate) in a 10-point, 5-fold dilution schemes with a top concentration of 5 μM, in a final volume of 20 μL. A final target (WDR5)/Tb-Ab concentration of 2 nM/1 nM is dispensed from appropriate stock solutions, respectively. The final DMSO concentration in each well of the assay plate is 1% or lower. The plate is covered, shielded from light, and incubated for 60 minutes at room temperature with rocking. 10mer-Thr-FAM and Anti-His terbium antibody fluorescence is then measured on a Biotek Cytation 3 at excitation wavelength of 340 nm, and emission wavelengths of 495 nm and 520 nm. Working buffer conditions contain 1× Phosphate Buffered Saline, 300 mM NaCl, 0.5 mM TCEP, 0.1% CHAPS, at pH 7.2. TR-FRET signal is plotted and IC50 and Ki values are calculated according to the formula of Wang Z. FEBS Lett (1996) 3, 245.
where […] is the concentration of the free inhibitor at 50% inhibition, [L]50 is the concentration of the free labeled ligand at 50% inhibition, [P]0 is the concentration of the free protein at 0% inhibition, Kd represents the dissociation constant of the FITC-MLL or 10mer-Thr-FAM probe for WDR5. Total fluorescence is also measured, to rule out compounds that are inherently fluorescent or able to act as quenchers in the assay. TR-FRET binding assay

[1] = system: MV4:11 human cancer cell lines; assay: Cellular viability / anti-proliferative activity, CellTiter-Glo, 5 day protocol; assay type: cell-based; conditions: 5 day incubation
Method: Anti-proliferative activity using MLL-harboring cell lines. MV-4-11 and K562 cells are grown in IMDM media supplemented with 10% FBS and 1% penicillin/streptomycin, Molm-13 cells are cultured in RPMI-1640 media supplemented with 10% FBS and 1% penicillin/streptomycin. Viability assays are performed by dispensing 200 cells at 7200 cells/mL into each well of an opaque 384-well plate and adding compounds at the indicated concentrations in a final volume of 32 μL and a final concentration of DMSO of 0.3% for all samples. A certain range of compound concentrations is made through a series of 2-fold dilutions starting 30 μM at the highest, total 22 dilutions. After a set incubation period, 5 day protocol, the viability of cells in each well is assessed using the CellTiter-Glo assay (Promega), read on a 96 Microplane Luminometer (Cytation 3, BioTek). Serial dilutions of each cell type are performed in all assays to generate standard curves and the final densities of cells are determined within the dynamic range of the instrument. GI50 values are calculated based on XLfit software (IDBS, Guildford, UK) with Sigmoidal Dose-Response Model. Each compound is tested in minimum of two replicates. Data are expressed as mean.

[2] = read-out: Ki for Exemplified Compounds for Inhibition of WDR5 by TR-FRET assay
[3] = Homo sapiens, MV4-11, 120 h, MV4:11 cells, read-out: GI50 for representative compounds on cellular proliferation of MV4:11 human cancer cell lines
[4] = read-out: Ki for additional WDR5 inhibitor compounds for Inhibition of WDR5 by TR-FRET assay
[5] = Homo sapiens, MV4-11, 120 h, MV4;11 cells, read-out: GI50 for additional WDR5 inhibitor compounds on cellular proliferation of MV4;11 human cancer cell lines

Structure (SMILES)	Ki (WDR5; [2]) [nM]	GI50 [1, 3] [nM]	Ki (WDR5; [4]) [nM]	other results
CCOc1cc2ncnc(N3CCc4c(cc(Cn5ccnc5)cc4-c4cn(C)nc4C(F)(F)F)C3=O)c2cc1OCC [Example 30, 7-((1H-Imidazol-1-yl)methyl)-2-(6,7-diethoxyquinazolin-4-yl)-5-(1-methyl-3-(trifluoromethyl)-1H-pyrazol-4-yl)-3,4-dihydroisoquinolin-1(2H)-one]	< 0.02	47		
CCc1cc2c(N3CCc4c(cc(Cn5ccnc5)cc4-c4cn(C)nc4C(F)(F)F)C3=O)ccnc2c(N2CCOCC2)n1 [Example 44, 7-((1H-Imidazol-1-yl)methyl)-2-(6-ethyl-8-morpholino-1,7-naphthyridin-4-yl)-5-(1-methyl-3-(trifluoromethyl)-1H-pyrazol-4-yl)-3,4-dihydroisoquinolin-1(2H)-one]	< 0.02	< 20		
COc1cc(N(C)C)c2nccc(N3CCc4c(cc(Cn5ccnc5)cc4-c4cn(C)nc4C(F)(F)F)C3=O)c2c1 [Compound B-35]			< 0.02	GI50 [1, 5]: 76 nM
CCc1cc(C(=O)NC2CN(C(=O)c3ccncc3)C2)c2nccc(N3CCc4c(cc(Cn5ccnc5)cc4-c4cn(C)nc4C(F)(F)F)C3=O)c2c1 [Compound B-242]			< 0.02	GI50 ([1]; MV4;11 cells, read-out: GI50 for additional WDR5 inhibitor compounds on cellular proliferation of MV4;11 human cancer cell lines): 29 nM
CCc1cc(C(=O)NCCN(C)C)c2nccc(N3CCc4c(cc(Cn5ccnc5)cc4-c4cn(C)nc4C(F)(F)F)C3=O)c2c1 [Compound B-166]			0.029	GI50 ([1]; Homo sapiens, 120 h, MV4;11 cells, read-out: GI50 for additional WDR5 inhibitor compounds on cellular proliferation of MV4;11 human cancer cell lines): < 20 nM
COc1cc2c(nc1C)CCCC2N1CCc2c(cc(Cn3ccnc3)cc2-c2cn(C)nc2C(F)(F)F)C1=O (stereo not shown) [Example 22, 7-((1H-Imidazol-1-yl)methyl)-2-(3-methoxy-2-methyl-5,6,7,8-tetrahydroquinolin-5-yl)-5-(1-methyl-3-(trifluoromethyl)-1H-pyrazol-4-yl)-3,4-dihydroisoquinolin-1(2H)-one]	< 0.02	< 20		
CCc1cc(OC)c2nncc(N3CCc4c(cc(Cn5ccnc5C)cc4-c4cn(C)nc4C(F)(F)F)C3=O)c2c1 [Example 14, 2-(6-Ethyl-8-methoxycinnolin-4-yl)-7-((2-methyl-1H-imidazol-1-yl)methyl)-5-(1-methyl-3-(trifluoromethyl)-1H-pyrazol-4-yl)-3,4-dihydroisoquinolin-1(2H)-one]	< 0.02	< 20		
COc1cc2c(N3CCc4c(cc(Cn5ccnc5)cc4-c4cn(C)nc4C(F)(F)F)C3=O)nc(C)nc2cc1N1CCC1 [Example 54, 7-((1H-Imidazol-1-yl)methyl)-2-(7-(azetidin-1-yl)-6-methoxy-2-methylquinazolin-4-yl)-5-(1-methyl-3-(trifluoromethyl)-1H-pyrazol-4-yl)-3,4-dihydroisoquinolin-1(2H)-one]	< 0.02	81		
CCc1cc(N2CCN(C3COC3)C(=O)C2)c2nc(C)cc(N3CCc4c(cc(Cn5ccnc5)cc4-c4cn(C)nc4C(F)(F)F)C3=O)c2c1 [Compound B-132]			0.03	GI50 [1, 5]: < 20 nM
CCc1cc2c(N3CCc4c(cc(Cn5ccnc5)cc4-c4cn(C)nc4C(F)(F)F)C3=O)ccnc2c(N2CCCC2)n1 [Example 34, 7-((1H-Imidazol-1-yl)methyl)-2-(6-ethyl-8-(pyrrolidin-1-yl)-1,7-naphthyridin-4-yl)-5-(1-methyl-3-(trifluoromethyl)-1H-pyrazol-4-yl)-3,4-dihydroisoquinolin-1(2H)-one]	< 0.02	75		
CCOc1cc2c(N3CCc4c(cc(Cn5ccnc5)cc4-c4cn(C)nc4C(F)(F)F)C3=O)ncnc2cc1OC [Example 28, 7-((1H-Imidazol-1-yl)methyl)-2-(6-ethoxy-7-methoxyquinazolin-4-yl)-5-(1-methyl-3-(trifluoromethyl)-1H-pyrazol-4-yl)-3,4-dihydroisoquinolin-1(2H)-one]	< 0.02	64		
